Laboratory results: US20220233743A1, “WOUND CLOSURE ENHANCEMENT METHODS AND MATERIALS VIA MANIPULATION OR AUGMENTATION OF LIPIN-1” (Board of Supervisors of Louisiana State University and …, priority 2019, published 2022)

Key:
Type in all cases: cell-based, mouse
[1] = tested on: BMDMs; assay: Mitochondrial bioenergetics, Seahorse OCR after IL-4
Protocol: BMDMs collected from lipin-1^mEnzyKO, lipin-1^mKO, and littermate control mice were seeded at a density of 150,000 cells per well on XF24 cell culture microplates and allowed to incubate for 4 h. Experiments were conducted in XF assay medium containing 25 mM glucose, 2 mM 1-glutamine, and 1 mM sodium pyruvate and analyzed using a Seahorse XFe 24 extracellular flux analyzer (Agilent Technologies). Where indicated, the following were injected: ATP-synthesis inhibitor oligomycin (Oligo; 1 μM), carbonyl cyanide 4-(trifluoromethoxy)phenylhydrazone (FCCP) (2 μM) to uncouple ATP synthesis, rotenone (100 nM) to block complex I, and antimycin A (1 μM) (Sigma-Aldrich) to block complex III. Oxygen consumption rate (OCR) was analyzed using Wave Desktop software (Agilent Technologies).
IL-4 stimulation polarizes macrophages toward a proresolving macrophage and elicits increased (3-oxidation and oxidative phosphorylation. In hepatocytes and skeletal muscle cells, lipin-1 promotes β-oxidation and oxidative phosphorylation. The inventors wanted to investigate if lipin-1 promoted oxidative phosphorylation in macrophages in response to IL-4. The inventors used BMDMs from lipin-1^mEnzyKO (EKO), lipin-1^mKO (KO), and littermate controls (wild type [WT]) to determine the contribution of the enzymatic activity and infer the contribution of the transcriptional coregulatory activity toward induction of oxidative phosphorylation. BMDMs from EKO, KO, and WT mice were stimulated with 40 ng/ml IL-4 for 4 h, and cellular bioenergetics were analyzed by Seahorse extracellular flux analyzer (Agilent Technologies). There were no differences in respiration between unstimulated WT and EKO macrophages (FIGS. 1 and 3). […] The inventors next tested if lipin-1 transcriptional coregulatory activity contributes to oxidative metabolism in macrophages. WT and lipin-1 KO macrophages were stimulated with IL-4 for 4 h, and cellular bioenergetics were analyzed. There was no difference in respiration between unstimulated WT and lipin-1 KO BMDMs (FIGS. 4 and 6).

[2] = tested on: BMDMs; assay: Phagocytosis assay with pHrodo green zymosan particles; conditions: IL-4 stimulated (20 ng/ml, 24 h) lipin-1mKO BMDMs vs wild type BMDMs
Protocol: Bone marrow-derived macrophages (5×10^5 cells) were cultured on sterile coverslips in culture wells and treated with 20 ng/ml IL-4 for 24 h. Culture medium was then replaced with DMEM, containing pHrodo™ green Zymosan A BioParticles® (Thermo Fisher Scientific, P35365) such that each well receives 0.1 mg zymosan particles. BMDMs were allowed to phagocytose for 1 h under dark incubation and then the assay was stopped by cold PBS wash. Cells seeded on coverslips were then fixed using 4% formaldehyde. Cells on cover slips were washed three times and then stained with DAPI slowfade (Invitrogen, S36938). Immunofluorescent images were taken using Olympus BX51 and evaluated using Image J (1.50a) analysis software. Phagocytic efficiency for each image was calculated by dividing the total number of fluorescent beads by the total number of nuclei in the fluorescent image, thus giving average number of beads per cell. Experiment was performed 3 times with 4 random images per group (n=12).
Macrophages with a wound healing phenotype can have increased phagocytic capabilities. The inventors investigated the ability of BMDMs to phagocytize zymosan beads. The inventors mock treated or IL-4 treated BMDMs from lipin-1^mKO or litter mate controls for 24 h. […] The inventors then imaged using fluorescent microscopy and quantified average number of particles per cell.

[3] = tested on: BMDMs; assay: IL-4 mediated wound-healing gene expression, qRT-PCR; conditions: 20 ng/ml IL-4 for 4 h
Protocol: Bone marrow-derived macrophages were treated with IL-4 (R&D Biosystems, 404-ML-050) for 4 h and mRNA was extracted from the cultured cells using RNeasy Mini Kit (Qiagen—74106) as per manufacturer's instructions. cDNA template was generated using qScript cDNA SuperMix (Quantabio, 95048). qRT-PCR was performed in a Biorad iCycler with SsoAdvanced Universal SYBER Green SuperMix (Biorad, 172-5271). Primers (FIG. 42) were obtained from the Harvard primer bank database. Primer specificity was confirmed using primer BLAST and by verifying the presence of a single peak in melt curve analysis. Results were expressed as fold change relative to IL-4 treated WT cells by 2^−ΔΔCt method after normalizing with GAPDH.
Pro-inflammatory response in macrophages is influenced by lipin-1, but if lipin-1 contributes to wound healing responses by macrophages is unknown. The inventors have previously generated lipin-1^mEnzyKO mice that express a truncated lipin-1 protein lacking lipin-1 enzymatic activity but retain transcriptional co-regulatory function in myeloid cells. […] BMDMs from lipin-1^mEnzyKO, lipin-1^mKO, and appropriate littermate controls were stimulated with 20 ng/ml of IL-4 for 4 h. mRNA was isolated and analyzed for the expression of several canonical wound-healing associated genes: Arg1, Socs2, Ccl17, Mannr, Il10, and Pparg. […]

## IL-4: cytokine IL-4 (R&D Biosystems, 404-ML-050) used to stimulate macrophages; optional component of the claimed composition
[1]; EKO (lipin-1mEnzyKO) BMDMs, 40 ng/ml IL-4 for 4 h
  OCR in response to IL-4 stimulation: equivalent increase in OCR
[1]; WT BMDMs, 40 ng/ml IL-4 for 4 h
  OCR in response to IL-4 stimulation: increased OCR
[1]; lipin-1 KO BMDMs, IL-4 for 4 h
  OCR in response to IL-4 stimulation: failed to increase OCR
[2]
  zymosan particles per cell: fewer particles per cell
[3]; lipin-1mEnzyKO BMDMs vs WT BMDMs
  expression of IL-4 elicited genes: equivalent expression
[3]; lipin-1mKO BMDMs vs wild type or lipin-1mEnzyKO
  IL-4 elicited gene expression (Arg1, Socs2, Ccl17, Mannr, Il10, Pparg): significantly lower
